Source: patent US5656206A, “Substituted naphthopyrans” (Transitions Optical, Inc., priority 1995, dated 1997)

Assay: Photochromic response rates on an optical bench (polymer test squares)
Type: physicochemical
Details: for ΔOD@ SATURATION: UV exposure continued for 20 minutes, test square; for ΔOD@ SATURATION / ΔOD/MIN SENSITIVITY: 75° F. (23.9° C.); for ΔOD/MIN SENSITIVITY: measured over first five (5) seconds of UV exposure, expressed per minute, BPA 2EO DMA / poly(ethyleneglycol) 600 dimethacrylate test square; for Bleach (T1/2): time for absorbance of activated form to reach one half the highest absorbance, room temperature (75° F., 23.9° C.), after removal of activating light; for LAMBDA MAX (VISIBLE): wavelength of maximum absorption of the activated (colored) form, in a diethylene glycol bis(allyl carbonate) composition
Method: Testing was done with the photochromic naphthopyrans of the Examples incorporated into polymeric samples by the following method. The quantity of naphthopyran calculated to yield a 1.5 times 10^-3 molal solution was added to a flask containing 50 grams of a monomer blend of 4 parts ethoxylated bisphenol A dimethacrylate (BPA 2EO DMA), 1 part poly(ethyleneglycol) 600 dimethacrylate, and 0.033 weight percent 2,2'-azobis(2-methyl propionitrile) (AIBN). The naphthopyran was dissolved into the monomer blend by stirring and gentle heating, if necessary. After a clear solution was obtained, it was poured into a flat sheet mold having the interior dimensions of 2.2 mm×6 inches (15.24 cm)×6 inches (15.24 cm). The mold was sealed and placed in a horizontal air flow, programmable oven set to increase the temperature from 40° C. to 95° C. over a 5 hour interval, hold the temperature at 95° C. for 3 hours and then lower it to 60° C. for at least 2 hours before the end of the curing cycle. After the mold was opened, the polymer sheet was cut using a diamond blade saw into 2 inch (5.1 centimeters) test squares.
The photochromic test squares prepared in Part A were tested for photochromic response rates on an optical bench. […] The bench was fitted with a 150 watt Xenon arc lamp, a remote controlled shutter, a copper sulfate bath acting as a heat sink for the arc lamp, a Schott WG-320 nm cut-off filter which removes short wavelength radiation; neutral density filter(s) and a sample holder in which the square to be tested was inserted. A collimated beam of light from a tungsten lamp was passed through the square at a small angle normal to the square. After passing through the square, the light from the tungsten lamp was directed through a photopic filter attached to a detector. The photopic filter passes wavelengths such that the detector mimics the response of the human eye. The output signals from the detector(s) were processed by a radiometer.
Change in optical density (ΔOD) was determined by inserting a test square in the bleached state into the sample holder, adjusting the transmittance scale to 100%, opening the shutter from the Xenon lamp to provide ultraviolet radiation to change the test square from the bleached state to an activated (i.e., darkened) state, measuring the transmittance in the activated state, and calculating the change in optical density according to the formula Δ OD=log(100/%Ta) where %Ta is the percent transmittance in the activated state and the logarithm is to the base 10.
The Δ OD/Min, which represents the sensitivity of the photochromic compound's response to UV light, was measured over the first five (5) seconds of UV exposure, then expressed on a per minute basis. The saturation optical density (OD) was taken under identical conditions as the Δ OD/Min, except UV exposure was continued for 20 minutes for the examples in Table 1. The lambda max reported in Table 1 is the wavelength in the visible spectrum at which the maximum absorption of the activated (colored) form of the photochromic compound in a diethylene glycol bis(allyl carbonate) composition occurs.

SMILES | ΔOD@ SATURATION | bleach rate, i.e., fade rate (in words) (conclusion from Table 1) | ΔOD/MIN SENSITIVITY | Bleach (T1/2) [min] | LAMBDA MAX (VISIBLE)
COc1ccc(C2(c3ccc4c(c3)CCO4)C=Cc3c(C(=O)N4CCCCC4)c(C)c4ccc(OC)cc4c3O2)cc1 (centres unmarked) [Example 4, 2-(4-methoxyphenyl)-2-(2,3-dihydrobenzofuran-5-yl)-5-piperidinocarbonyl-6-methyl-9-methoxy-2H-naphtho[1,2-b]pyran] | 0.65 | fades much slower | 0.34 ΔOD/MIN | > 13.3 | 535
COc1ccc(C2(c3ccc(OC)cc3)C=Cc3c(CO)c(-c4ccccc4)c4ccccc4c3O2)cc1 [Example 2, 2,2-bis(4-methoxyphenyl)-5-hydroxymethyl-6-phenyl-2H-naphtho[1,2-b]pyran] | 0.26 | – | 0.32 ΔOD/MIN | 2.48 | 506
COc1ccc(C2(c3ccc(OC)cc3)C=Cc3c(CO)c(C)c4ccc(OC)cc4c3O2)cc1 [Example 1, 2,2-bis(4-methoxyphenyl)-5-hydroxymethyl-6-methyl-9-methoxy-2H-naphtho[1,2-b]pyran] | 0.42 | – | 0.38 ΔOD/MIN | 5.05 | 520
COc1ccc(C2(c3ccc(OC)cc3)C=Cc3c(COC(C)=O)c(-c4ccccc4)c4ccccc4c3O2)cc1 [Example 3, 2,2-bis(4-methoxyphenyl)-5-acetoxymethyl-6-phenyl-2H-naphtho[1,2-b]pyran] | 0.25 | – | 0.33 ΔOD/MIN | 1.82 | 508
